Tested on: L1210 leukemia cells
Test: Cytotoxicity assay on L1210 leukemia cells (Cell Counting Kit-8)
Settings: positive control at 1.0 μM

With COc1cc([C@@H]2c3cc4c(cc3[C@@H](O[C@@H]3O[C@@H]5CO[C@@H](C)O[C@H]5[C@H](O)[C@H]3O)[C@H]3COC(=O)[C@H]23)OCO4)cc(OC)c1O [etoposide, Etoposide] the “inhibition of L1210 leukemia cell growth” value was 90.5%.
